Here are results for 36 molecules from patent US12516016B2, “GPX4 inhibitors, pharmaceutical compositions thereof, and their use for treating GPX4-mediated diseases” (EUBULUS BIOTHERAPEUTICS (HONG KONG) LIMITED, priority 2020, dated 2026).

The test system of this experiment is hepatocellular carcinoma cell line Hub-7. As to the kind of experiment: Cell proliferation assay (CELL-TITER GLO cell viability). Particulars: 24 h, Hub-7 cells, 24 h incubation, read-out: Inhibition of Cell Proliferation EC50. The format is cell-based. The procedure, abridged:
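[…] cells (4,000/well) seeded overnight, then exposed 24 h to compound from 10 μM in 3-fold serial dilutions. Viability read by CELL-TITER GLO luminescence; EC50 values derived.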

For the molecule `C#CC(=O)N(c1ccc(OC)c(Cl)c1)C(C(=O)NC(C)(C)C)c1cccc(N)c1` (stereo not drawn) [A21, N-(1-(3-Aminophenyl)-2-(tert-butylamino)-2-oxoethyl)-N-(3-chloro-4-methoxyphenyl)propiolamide], the EC50 lay within 100 to 500 nM. As to `C#CC(=O)N(c1cccc(-c2cc[nH]n2)c1)C1(C(=O)NCc2ccccc2)CCOCC1` [A135, 4-(N-(3-(1H-Pyrazol-3-yl)phenyl)propiolamido)-N-benzyltetrahydro-2H-pyran-4-carboxamide], the EC50 was 100 to 500 nM. Take `C#CC(=O)N(c1cccc(Cl)c1)C1(C(=O)NCC(=O)Nc2ccccc2)CCOCC1` [A193, 4-(N-(3-Chlorophenyl)propiolamido)-N-(2-oxo-2-(phenylamino)ethyl)tetrahydro-2H-pyran-4-carboxamide]: the EC50 was 100 to 500 nM. Regarding `C#CC(=O)N(c1ccc2scnc2c1)C1(C(=O)NCc2ccccc2)CCOCC1` [A155, 4-(N-(Benzo[d]thiazol-5-yl)propiolamido)-N-benzyltetrahydro-2H-pyran-4-carboxamide], the EC50 was in the range of 100 to 500 nM. As for `C#CC(=O)N(c1cc(Cl)ccc1Cl)C(C(=O)NCc1ccccc1)c1ccccc1` (stereo not drawn) [A145, N-(2-(Benzylamino)-2-oxo-1-phenylethyl)-N-(2,5-dichlorophenyl)propiolamide], the EC50 was not above 100 nM. For `C#CC(=O)N(C1CCC(=O)N(C)C1)C(C(=O)NCc1ccccc1)c1ccccc1` (stereo not drawn) [A158, N-(2-(Benzylamino)-2-oxo-1-phenylethyl)-N-(1-methyl-6-oxopiperidin-3-yl)-propiolamide], the EC50 was in the range of 2000 to 10000 nM.

For the molecule `C#CC(=O)N(c1ccc(OC)cc1OC)C(C(=O)NCC(=O)OCC)c1cccs1` (stereo not drawn) [A190, Ethyl 2-(2-(N-(2,4-dimethoxyphenyl)propiolamido)-2-(thiophen-2-yl)acetamido)-acetate], the EC50 was in the range of 500 to 2000 nM. With `C#CC(=O)N(c1cccc(Cl)c1)C(C(=O)NCc1ccccc1)c1cccs1` (stereo not drawn) [A75, N-(2-(Benzylamino)-2-oxo-1-(thiophen-2-yl)ethyl)-N-(3-chlorophenyl)-propiolamide], the EC50 was not above 100 nM. Regarding `C#CC(=O)N(c1cccc(NS(C)(=O)=O)c1)C(C(=O)NCc1ccccc1)c1cccc(N)c1` (stereo not drawn) [A42, N-(1-(3-Aminophenyl)-2-(benzylamino)-2-oxoethyl)-N-(3-(methylsulfonamido)-phenyl)propiolamide], the EC50 is 2000 to 10000 nM. In the case of `C#CC(=O)N(c1ccc2c(ccn2C)c1)C1(C(=O)NCc2ccccc2)CCOCC1` [A153, N-Benzyl-4-(N-(1-methyl-1H-indol-5-yl)propiolamido)tetrahydro-2H-pyran-4-carboxamide] it was not above 100 nM; in that of `C#CC(=O)N(c1ccc(Cl)cc1)C(C(=O)NCc1ccccc1)c1ccc(N)cc1` (stereo not drawn) [A52, N-(2-(benzylamino)-1-(4-aminophenyl)-2-oxoethyl)-N-(4-chlorophenyl)propiolamide], not above 100 nM. Take `C#CC(=O)N(c1cccc(O)c1)C(C(=O)NCc1ccccc1)c1cccc(N)c1` (stereo not drawn) [A37, N-(1-(3-Aminophenyl)-2-(benzylamino)-2-oxoethyl)-N-(3-hydroxyphenyl)-propiolamide]: the EC50 was not above 100 nM. Consider `O=C(CCl)N(c1cccc2nsnc12)C1(C(=O)NCc2ccccc2)CCOCC1` [C28, 4-(N-(Benzo[c][1,2,5]thiadiazol-4-yl)-2-chloroacetamido)-N-benzyltetrahydro-2H-pyran-4-carboxamide], for which the EC50 is 100 to 500 nM. `C#CC(=O)N(c1ccc2c(cnn2C)c1)C1(C(=O)NCc2ccccc2)CCC(=O)CC1` [A164, N-Benzyl-1-(N-(1-methyl-1H-indazol-5-yl)propiolamido)-4-oxocyclohexane-1-carboxamide]: the EC50 is not above 100 nM. In the case of `C#CC(=O)N(c1cccc(Cl)c1)C1(C(=O)NCc2ccccc2)CCCC(=O)C1` (stereo not drawn) [A172, N-Benzyl-1-(N-(3-chlorophenyl)propiolamido)-3-oxocyclohexanecarboxamide] it was not above 100 nM. Turning to `C#CC(=O)N(c1ccc(Cl)cc1)C(C(=O)NC(C)(C)C)c1cccc(N)c1` (stereo not drawn) [A119], the EC50 is not above 100 nM. In the case of `C#CC(=O)N(c1cccc(S(C)(=O)=O)c1)C(C(=O)NC(C)(C)C)c1ccc(N)cc1` (stereo not drawn) [A6, N-(1-(4-Aminophenyl)-2-(tert-butylamino)-2-oxoethyl)-N-(3-(methylsulfonyl)phenyl)propiolamide] it was 2000 to 10000 nM; in that of `C#CC(=O)N(c1cccc(-c2cc[nH]n2)c1)C(C(=O)NCc1ccccc1)c1ccccc1` (stereo not drawn) [A134, N-(3-(1H-Pyrazol-3-yl)phenyl)-N-(2-(benzylamino)-2-oxo-1-phenylethyl)-propiolamide], not above 100 nM; in that of `C#CC(=O)N(c1cccc(C(N)=O)c1)C(C(=O)NCc1ccccc1)c1cccc(N)c1` (stereo not drawn) [A47, 3-(N-(1-(3-Aminophenyl)-2-(benzylamino)-2-oxoethyl)propiolamido)-benzamide], more than 10000 nM. Regarding `C#CC(=O)N(c1ccc(N)cc1)C(C(=O)NC(C)(C)C)c1cccc(N)c1` (stereo not drawn) [A22, N-(4-Aminophenyl)-N-(1-(3-aminophenyl)-2-(tert-butylamino)-2-oxoethyl)-propiolamide], the EC50 lay in the range of 2000 to 10000 nM.

As for `CC(=O)Nc1cccc(N(C(=O)CCl)C(C(=O)NCCc2ccccc2)c2ccc([N+](=O)[O-])cc2)c1` (stereo not drawn) [C11, N-(3-Acetamidophenyl)-2-chloro-N-(1-(4-nitrophenyl)-2-oxo-2-(phenethyl-amino)ethyl)acetamide], the EC50 lay within 2000 to 10000 nM.

Consider `C#CC(=O)N(Cc1ccccc1)C(C(=O)NCc1ccccc1)c1cccc(N)c1` (stereo not drawn) [A36, N-(1-(3-Aminophenyl)-2-(benzylamino)-2-oxoethyl)-N-benzylpropiolamide], for which the EC50 lay in the range of 500 to 2000 nM. Regarding `CC#CC(=O)N(c1ccc(Cl)c(Cl)c1)C(C(=O)NCc1ccccc1)c1ccccc1` (stereo not drawn) [A132, N-(2-(Benzylamino)-2-oxo-1-phenylethyl)-N-(3,4-dichlorophenyl)but-2-ynamide], the EC50 was more than 10000 nM.

`C#CC(=O)N(Cc1cc[nH]n1)C1(C(=O)NCc2ccccc2)CCOCC1` [A137, 4-(N-((1H-Pyrazol-3-yl)methyl)propiolamido)-N-benzyltetrahydro-2H-pyran-4-carboxamide]: the EC50 was more than 10000 nM. With `C#CC(=O)N(c1ccc(CO)cc1)C(C(=O)NC(C)(C)C)c1cccc(N)c1` (stereo not drawn) [A26, N-(1-(3-Aminophenyl)-2-(tert-butylamino)-2-oxoethyl)-N-(4-(hydroxymethyl)-phenyl)propiolamide], the EC50 was 2000 to 10000 nM. Consider `C#CC(=O)N(c1cccc(Cl)c1)C(C(=O)NCc1ccccc1F)c1ccccc1` (stereo not drawn) [A116, N-(3-Chlorophenyl)-N-(2-((2-fluorobenzyl)amino)-2-oxo-1-phenylethyl)-propiolamide], for which the EC50 was 100 to 500 nM. For `C#CC(=O)N(c1cccc(OC)c1)C(C(=O)NC(C)(C)C)c1ccc(N)cc1` (stereo not drawn) [A7, N-(1-(4-Aminophenyl)-2-(tert-butylamino)-2-oxoethyl)-N-(3-methoxyphenyl)-propiolamide], the EC50 fell in the range of 100 to 500 nM. In the case of `Cn1ncc2cc(N(C(=O)CCCl)C3(C(=O)NCc4ccccc4)CCOCC3)ccc21` [D5, N-Benzyl-4-(3-chloro-N-(1-methyl-1H-indazol-5-yl)propanamido)tetrahydro-2H-pyran-4-carboxamide], the EC50 is more than 10000 nM. In the case of `COc1ccc(N(C(=O)CCl)C2(C(=O)NCc3ccccc3)CCOCC2)cc1Cl` [C25, N-Benzyl-4-(2-chloro-N-(3-chloro-4-methoxyphenyl)acetamido)tetrahydro-2H-pyran-4-carboxamide], the EC50 fell in the range of 100 to 500 nM. In the case of `C#CC(=O)N(c1cc2c(cc1I)OCO2)C(C(=O)NCc1ccccc1)c1ccccc1` (stereo not drawn) [A146, N-(2-(Benzylamino)-2-oxo-1-phenylethyl)-N-(6-iodobenzo[d][1,3]dioxol-5-yl)-propiolamide] it was not above 100 nM; in that of `C#CC(=O)N(c1ccc(O)cc1)C(C(=O)NCc1ccccc1)c1cccc(N)c1` (stereo not drawn) [A45, N-(1-(3-Aminophenyl)-2-(benzylamino)-2-oxoethyl)-N-(4-hydroxyphenyl)-propiolamide], 2000 to 10000 nM. Regarding `C#CC(=O)N(c1ccc(Cl)cc1)C(C(=O)NC(C)(C)C)c1ccc(N)cc1` (stereo not drawn) [A4, N-(1-(4-Aminophenyl)-2-(tert-butylamino)-2-oxoethyl)-N-(4-chlorophenyl)-propiolamide], the EC50 lay within 100 to 500 nM.

`C#CC(=O)N(c1cccc(Cl)c1)C1(C(=O)NCc2ccccc2)CCCC(O)C1` (stereo not drawn) [A171, N-Benzyl-1-(N-(3-chlorophenyl)propiolamido)-3-hydroxycyclohexane-carboxamide]: the EC50 was in the range of 2000 to 10000 nM.

In the case of `C#CC(=O)N(c1cccc(S(N)(=O)=O)c1)C(C(=O)NC(C)(C)C)c1ccc(N)cc1` (stereo not drawn) [A2, N-(1-(4-aminophenyl)-2-(tert-butylamino)-2-oxoethyl)-N-(3-sulfamoylphenyl)propiolamide], the EC50 was more than 10000 nM.

For `COc1ccc(N(C(=O)CCl)C2(C(=O)NCCc3ccccc3)CCC(F)(F)CC2)cc1Cl` [C20, 1-(2-Chloro-N-(3-chloro-4-methoxyphenyl)acetamido)-4,4-difluoro-N-phenethyl-cyclohexane-1-carboxamide], the EC50 was in the range of 100 to 500 nM. On to `C#CC(=O)N(c1cccc(Cl)c1)C(C(=O)NCc1ccccc1)c1ccncc1` (stereo not drawn) [A124], for which the EC50 lay within 500 to 2000 nM.
